Like-named read-outs stand apart in the source and are kept apart here.
Tested on: patients with advanced TP53 wild-type (WT) leukemias

Question: What does the source list for COc1ncc(-c2nc3c(n2C(C)C)[C@H](c2ccc(Cl)cc2)N(c2cc(Cl)cn(C)c2=O)C3=O)c(OC)n1 [HDM201, (S)-5-(5-Chloro-1-methyl-2-oxo-1,2-dihydro-pyridin-3-yl)-6-(4-chloro-phenyl)-2-(2,4-dimethoxy-pyrimidin-5-yl)-1-isopropyl-5,6-dihydro-1H-pyrrolo[3,4-d]imidazol-4-one]?
Answer: AE: Stomatitis (Regimen 1B N = 6, All Grades): 0 n (%); AE: Subarachnoid Haemorrhage (Regimen 1B N = 6, All Grades): 0 n (%); AE: Thrombocytopenia/Platelet Count Decreased (Regimen 1B N = 6, All Grades): 3 (50.0) n (%); AE: Total (Regimen 1B N = 6, All Grades): 5 (83.3) n (%); AE: Tumour Lysis Syndrome (Regimen 1B N = 6, All Grades): 0 n (%); AE: Vomiting (Regimen 1B N = 6, All Grades): 0 n (%); AE: Weight Decreased (Regimen 1B N = 6, All Grades): 0 n (%); AE: White Blood Cell Count Decreased (Regimen 1B N = 6, All Grades): 0 n (%); AE: Abdominal Discomfort (Regimen 1B N = 6, Grade 3/4): 0 n (%); AE: Abdominal Pain (Regimen 1B N = 6, Grade 3/4): 0 n (%); AE: Abdominal Pain Upper (Regimen 1B N = 6, Grade 3/4): 0 n (%); AE: Acute Kidney Injury (Regimen 1B N = 6, Grade 3/4): 1 (16.7) n (%); AE: Amylase Increased (Regimen 1B N = 6, Grade 3/4): 0 n (%); AE: Anaemia (Regimen 1B N = 6, Grade 3/4): 2 (33.3) n (%); AE: Arthralgia (Regimen 1B N = 6, Grade 3/4): 0 n (%); AE: Asthenia (Regimen 1B N = 6, Grade 3/4): 0 n (%); AE: Atrial Fibrillation (Regimen 1B N = 6, Grade 3/4): 0 n (%); AE: Atypical Pneumonia (Regimen 1B N = 6, Grade 3/4): 0 n (%); AE: Balanitis Candida (Regimen 1B N = 6, Grade 3/4): 0 n (%); AE: Blood Alkaline Phosphatase Increased (Regimen 1B N = 6, Grade 3/4): 0 n (%); AE: Blood Bilirubin Increased (Regimen 1B N = 6, Grade 3/4): 0 n (%); AE: Blood Creatinine Increased (Regimen 1B N = 6, Grade 3/4): 0 n (%); AE: Blood Phosphorus Increased (Regimen 1B N = 6, Grade 3/4): 0 n (%); AE: Blood Uric Acid Increased (Regimen 1B N = 6, Grade 3/4): 0 n (%); AE: Bone Marrow Failure (Regimen 1B N = 6, Grade 3/4): 0 n (%); AE: C-Reactive Protein Increased (Regimen 1B N = 6, Grade 3/4): 0 n (%); AE: Cardiac Failure (Regimen 1B N = 6, Grade 3/4): 0 n (%); AE: Cellulitis (Regimen 1B N = 6, Grade 3/4): 1 (16.7) n (%); AE: Chronic Graft Versus Host Disease (Regimen 1B N = 6, Grade 3/4): 0 n (%); AE: Conjunctival Haemorrhage (Regimen 1B N = 6, Grade 3/4): 0 n (%); AE: Constipation (Regimen 1B N = 6, Grade 3/4): 0 n (%); AE: Cough (Regimen 1B N = 6, Grade 3/4): 0 n (%); AE: Cystitis Viral (Regimen 1B N = 6, Grade 3/4): 0 n (%); AE: Cytomegalovirus Infection (Regimen 1B N = 6, Grade 3/4): 0 n (%); AE: Decreased Appetite (Regimen 1B N = 6, Grade 3/4): 0 n (%); AE: Diarrhoea (Regimen 1B N = 6, Grade 3/4): 0 n (%); AE: Dyspepsia (Regimen 1B N = 6, Grade 3/4): 0 n (%); AE: Dyspnoea (Regimen 1B N = 6, Grade 3/4): 0 n (%); AE: Epistaxis (Regimen 1B N = 6, Grade 3/4): 0 n (%); AE: Fatigue (Regimen 1B N = 6, Grade 3/4): 0 n (%); AE: Febrile Neutropenia (Regimen 1B N = 6, Grade 3/4): 2 (33.3) n (%); AE: Gamma-Glutamyltransferase Increased (Regimen 1B N = 6, Grade 3/4): 0 n (%); AE: General Physical Health Deterioration (Regimen 1B N = 6, Grade 3/4): 0 n (%); AE: Gingival Bleeding (Regimen 1B N = 6, Grade 3/4): 0 n (%); AE: Graft Versus Host Disease (Regimen 1B N = 6, Grade 3/4): 0 n (%); AE: Haemoglobin Decreased (Regimen 1B N = 6, Grade 3/4): 0 n (%); AE: Headache (Regimen 1B N = 6, Grade 3/4): 0 n (%); AE: Hyperbilirubinaemia (Regimen 1B N = 6, Grade 3/4): 0 n (%); AE: Hyperglycaemia (Regimen 1B N = 6, Grade 3/4): 0 n (%); AE: Hyperkalaemia (Regimen 1B N = 6, Grade 3/4): 1 (16.7) n (%); AE: Hyperphosphataemia (Regimen 1B N = 6, Grade 3/4): 0 n (%); AE: Hyperuricaemia (Regimen 1B N = 6, Grade 3/4): 0 n (%); AE: Hypoalbuminaemia (Regimen 1B N = 6, Grade 3/4): 0 n (%); AE: Hypocalcaemia (Regimen 1B N = 6, Grade 3/4): 0 n (%); AE: Hypokalaemia (Regimen 1B N = 6, Grade 3/4): 0 n (%); AE: Hypomagnesaemia (Regimen 1B N = 6, Grade 3/4): 0 n (%); AE: Hyponatraemia (Regimen 1B N = 6, Grade 3/4): 0 n (%); AE: Hypophosphataemia (Regimen 1B N = 6, Grade 3/4): 0 n (%); AE: Hypotension (Regimen 1B N = 6, Grade 3/4): 0 n (%); AE: Infection (Regimen 1B N = 6, Grade 3/4): 0 n (%); AE: Infective Glossitis (Regimen 1B N = 6, Grade 3/4): 0 n (%); AE: Iron Overload (Regimen 1B N = 6, Grade 3/4): 0 n (%); AE: Leukopenia (Regimen 1B N = 6, Grade 3/4): 0 n (%); AE: Lip Oedema (Regimen 1B N = 6, Grade 3/4): 0 n (%); AE: Lipase Increased (Regimen 1B N = 6, Grade 3/4): 0 n (%); AE: Macular Oedema (Regimen 1B N = 6, Grade 3/4): 1 (16.7) n (%); AE: Malaise (Regimen 1B N = 6, Grade 3/4): 0 n (%); AE: Mouth Haemorrhage (Regimen 1B N = 6, Grade 3/4): 0 n (%); AE: Nausea (Regimen 1B N = 6, Grade 3/4): 0 n (%); AE: Neutropenia/Neutrophil Count Decreased (Regimen 1B N = 6, Grade 3/4): 1 (16.7) n (%); AE: Oedema (Regimen 1B N = 6, Grade 3/4): 0 n (%); AE: Oedema Peripheral (Regimen 1B N = 6, Grade 3/4): 0 n (%); AE: Oral Disorder (Regimen 1B N = 6, Grade 3/4): 0 n (%); AE: Pain In Extremity (Regimen 1B N = 6, Grade 3/4): 0 n (%); AE: Pancytopenia (Regimen 1B N = 6, Grade 3/4): 1 (16.7) n (%); AE: Pneumonia (Regimen 1B N = 6, Grade 3/4): 0 n (%); AE: Pollakiuria (Regimen 1B N = 6, Grade 3/4): 0 n (%); AE: Pyrexia (Regimen 1B N = 6, Grade 3/4): 0 n (%); AE: Rash (Regimen 1B N = 6, Grade 3/4): 0 n (%); AE: Rash Erythematous (Regimen 1B N = 6, Grade 3/4): 0 n (%); AE: Rash Papular (Regimen 1B N = 6, Grade 3/4): 0 n (%); AE: Rectal Haemorrhage (Regimen 1B N = 6, Grade 3/4): 0 n (%); AE: Renal Failure (Regimen 1B N = 6, Grade 3/4): 0 n (%); AE: Skin Exfoliation (Regimen 1B N = 6, Grade 3/4): 0 n (%); AE: Stomatitis (Regimen 1B N = 6, Grade 3/4): 0 n (%); AE: Subarachnoid Haemorrhage (Regimen 1B N = 6, Grade 3/4): 0 n (%); AE: Thrombocytopenia/Platelet Count Decreased (Regimen 1B N = 6, Grade 3/4): 3 (50.0) n (%); AE: Total (Regimen 1B N = 6, Grade 3/4): 5 (83.3) n (%); AE: Tumour Lysis Syndrome (Regimen 1B N = 6, Grade 3/4): 0 n (%); AE: Vomiting (Regimen 1B N = 6, Grade 3/4): 0 n (%); AE: Weight Decreased (Regimen 1B N = 6, Grade 3/4): 0 n (%); AE: White Blood Cell Count Decreased (Regimen 1B N = 6, Grade 3/4): 0 n (%); AE: Abdominal Discomfort (Regimen 2A N = 7, All Grades): 0 n (%); AE: Abdominal Pain (Regimen 2A N = 7, All Grades): 0 n (%); AE: Abdominal Pain Upper (Regimen 2A N = 7, All Grades): 0 n (%); AE: Acute Kidney Injury (Regimen 2A N = 7, All Grades): 1 (14.3) n (%); AE: Amylase Increased (Regimen 2A N = 7, All Grades): 0 n (%); AE: Anaemia (Regimen 2A N = 7, All Grades): 3 (42.9) n (%); AE: Arthralgia (Regimen 2A N = 7, All Grades): 0 n (%); AE: Asthenia (Regimen 2A N = 7, All Grades): 0 n (%); AE: Atrial Fibrillation (Regimen 2A N = 7, All Grades): 0 n (%); AE: Atypical Pneumonia (Regimen 2A N = 7, All Grades): 0 n (%); AE: Balanitis Candida (Regimen 2A N = 7, All Grades): 0 n (%); AE: Blood Alkaline Phosphatase Increased (Regimen 2A N = 7, All Grades): 0 n (%); AE: Blood Bilirubin Increased (Regimen 2A N = 7, All Grades): 0 n (%)
